Experimental findings from publication PMC11314561, “Design and Synthesis of Novel Aminoindazole-pyrrolo[2,3-b]pyridine Inhibitors of IKKα That Selectively Perturb Cellular Non-Canonical NF-κB Signalling” (Molecules, 2024) are described below.

What is called pIC50 is −log10 of the IC50, conventionally taken in molar units. Usually pKi stands for the negative decadic logarithm of the Ki, by convention in mol/L. A low value points to a high Ki.

The subject of experiment [1] is IKKβ-mediated IκBα degradation in U2OS cells. The experiment can be described thus: TNFα-stimulated IκBα degradation, Western blotting. The note with it: for effect on TNFα-stimulated IκBα degradation: 0.3–30 µM. The format is cell-based. The method, then:
To assess the translation of the biochemical potencies and selectivities described above to a cell-based setting, exemplars from the series were initially examined for inhibitory action against IKKs in the U2OS osteosarcoma cell line. This cell type was utilised to represent cells with a proliferative phenotype dependent on the constitutively activated IKKα-mediated non-canonical NF-κB pathway. Compounds 5r [SU1261]
U2OS cells were cultured in McCoy’s 5A Modified Medium, and PC-3M-Luc-C6 prostate cancer cells were cultured in Minimum Essential Medium (MEM), each containing 10% (v/v) Foetal Calf Serum (FCS), L-glutamine ([…]), and penicillin/streptomycin (250 units/mL; 100 μg/mL) and incubated in a humidified atmosphere at 37 °C with 5% (v/v) CO2. Cells were grown to near confluence and prior to experimentation rendered quiescent by serum deprivation for 24 h.
To examine the potential impact of compounds on canonical NF-κB signalling, cells were then exposed to vehicle (DMSO; 0.05% (v/v)) or increasing concentrations of compounds (0.01–30 µM) for 1 h prior to treatment with TNF⍺ (20 ng/mL) for 30 min. Whole-cell extracts were prepared, and the status of IκB⍺, phospho-p65 (Ser536), p65, and phospho-p105 ([…]) was also assessed by Western blotting.
Each figure/panel of Western blotting data represents one of at least three separate experiments. Western blots were scanned and imaged using Adobe Photoshop 5.0.2 software and polypeptide bands were semi-quantified by scanning densitometry using the Scion Image program. Data were normalised to fold expression/inhibition relative to ‘agonist plus vehicle’ treatment and expressed as mean ± s.e.m. IC50 values were established by curve fitting using the Hill equation.
Figure 11 Compound 5r [SU1261] inhibits FCS-stimulated p100 phosphorylation (Ser866/870) with no impact on TNFα-stimulated IkBα degradation and limited impact on phosphorylation of p65 (Ser536) in U2OS osteosarcoma cells. […] (0.3–30 µM) for 1 h prior to treatment with FCS (10% (v/v)) for 4 h, and phospho-p100 (Ser866/870) was assessed by Western blotting. […]
A general note: A western blot detects proteins with antibodies after separation by electrophoresis.

Another experiment concerns the target T1, IKKα (Homo sapiens, UniProt O15111).
T1 sequence (O15111 1-745): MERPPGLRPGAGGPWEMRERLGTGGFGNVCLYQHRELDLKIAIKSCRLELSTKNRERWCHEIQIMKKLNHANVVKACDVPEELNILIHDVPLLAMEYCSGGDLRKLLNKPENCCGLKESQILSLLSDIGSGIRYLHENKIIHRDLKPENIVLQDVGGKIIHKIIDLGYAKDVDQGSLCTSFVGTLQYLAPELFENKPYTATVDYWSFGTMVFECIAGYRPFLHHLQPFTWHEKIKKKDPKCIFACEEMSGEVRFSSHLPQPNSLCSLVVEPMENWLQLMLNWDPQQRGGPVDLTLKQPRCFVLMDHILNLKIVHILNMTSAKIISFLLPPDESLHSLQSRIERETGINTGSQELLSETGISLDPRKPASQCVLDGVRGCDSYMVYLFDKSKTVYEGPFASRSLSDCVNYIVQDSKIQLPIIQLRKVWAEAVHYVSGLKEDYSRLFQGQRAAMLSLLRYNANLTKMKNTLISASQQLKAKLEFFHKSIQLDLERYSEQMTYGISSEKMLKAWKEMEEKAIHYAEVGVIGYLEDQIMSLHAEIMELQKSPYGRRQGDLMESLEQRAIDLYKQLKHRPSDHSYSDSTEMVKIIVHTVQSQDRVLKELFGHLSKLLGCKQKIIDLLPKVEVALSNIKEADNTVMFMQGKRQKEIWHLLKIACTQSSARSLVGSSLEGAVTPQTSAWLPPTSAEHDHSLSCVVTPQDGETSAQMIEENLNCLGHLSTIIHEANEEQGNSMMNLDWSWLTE
Nature of the experiment: DELFIA kinase assay, IKKα. The format is biochemical. The note with it: for pKi: DELFIA kinase assay; for Selectivity for IKKα over IKKβ: ratio of Ki IKKβ to Ki IKKα. The text has this: To examine the pyrrolo[2,3-b]pyridines as an alternative scaffold, we adopted the AIPP core because it had similar dimensions to SU909 (1), with HBD/HBA motifs positioned at the scaffold extremities to interact with both the hinge region and the G-loop wall of IKKα, a rationale we had previously proposed as the basis for imparting selectivity. A preliminary set of AIPP derivatives was designed and synthesised to explore its utility as an IKK-targeting scaffold, whilst incorporating additional functionality through which to introduce selectivity for the IKKα isoform (2–4; Figure 3). This was achieved by initially adopting two different approaches: either appending a hydrophobic moiety to the pyrrolo[2,3-b]pyridine motif as a fused form to afford the tricyclic derivatives 2 and 3, or as a phenyl substituent to introduce flexibility with respect to the central pyrrolo[2,3-b]pyridine moiety in 4. When assessed against IKKα and IKKβ using our in-house DELFIA kinase assay […] The pyrrolo[2,3-b]pyridine was bound to the hinge region in the classical HBA/HBD motif with the GK+3 amide backbone, whilst the aminoindazole projected towards the top of the pocket to interact with the G-loop (Figure 4A). […] In both isoforms, the 2-phenyl moiety protruded away from the hinge towards the exposed solvent area.
IKKα and IKKβ inhibitory activity were determined using a dissociation-enhanced ligand fluorescent immunoassay (DELFIA) based on the protocol of HTScan™ IKKβ Kinase Assay (Cell Signaling Technology, Danvers, MA, USA) as described in [24].

Each structure is given as a SMILES string. pIC50, pKi: −log10 of the molar value.

For the compound `Nc1n[nH]c2ccc(-c3ccnc4[nH]c(-c5ccccc5)cc34)cc12` [Compound 4], in experiment [1] (Homo sapiens, 1 h pre-treatment, TNFα 30 min), the pIC50 was 6.21. Moreover, the pKi at IKKα was 8.52.
In the case of `Nc1n[nH]c2ccc(-c3ccnc4[nH]c(-c5cccc(OCc6ccccc6)c5)cc34)cc12` [Compound 5r [SU1261]], the “effect on TNFα-stimulated IκBα degradation” value in experiment [1] was “did not impact”. The compound further showed a pKi at IKKα of 8.00.
`Nc1n[nH]c2ccc(-c3ccnc4[nH]c(-c5ccnc(OCc6ccccc6)c5)cc34)cc12` [Compound 6g [SU1349]]: in experiment [1], the “effect on TNFα-stimulated IκBα degradation” value is “no significant inhibition”. In addition, the pKi on IKKα was 7.80. In addition, the “Selectivity for IKKα over IKKβ” value was found to be 209 fold on IKKα (listed as 6g [SU1349]) and 209.5 fold at IKKα (listed as SU1349).
